Our source for the pBBB, Activity and Drug uptake values is ChEMBL document CHEMBL3044813, “Bloodbrain barrier permeability and transport studies of JLK1486: a new antiglioblastoma drug” (Med Chem Res, 2012).

For one series, the system named is Blood brain barrier. In words: Permeability across blood brain barrier of Rattus norvegicus Sprague-Dawley (rat) at 10 mg/kg, iv. In kind it is ADME, organism-based. Set-up: dose 10 mg/kg, route intravenous. The following applies: in vivo.
A further series relates to Glioma. In words: Antitumor activity against Homo sapiens (human) Glioma cells xenografted in transgenic mouse assessed as mouse survival. The series is classed as functional, cell-based.
Series [1] addresses T1, ATP-dependent translocase ABCB1 (Homo sapiens, UniProt P08183). In words: Inhibition of Verapamil-induced P-gp ATPase activity (unknown origin) at 10 uM by spectrophotometry (reference value: 90.7 nmol/mg/min).
The target in series [2] is T1, ATP-dependent translocase ABCB1. The series can be described thus: Inhibition of Progesterone-induced P-gp ATPase activity (unknown origin) at 10 uM by spectrophotometry (reference value: 61.5 nmol/mg/min).
Series [3] has the same target. The series can be described thus: Inhibition of Verapamil-induced P-gp ATPase activity (unknown origin) at 1 uM by spectrophotometry (reference value: 90.7 nmol/mg/min).
Series [4] has the same target. The series can be described thus: Inhibition of Vinblastine-induced P-gp ATPase activity (unknown origin) at 1 uM by spectrophotometry (reference value: 42.8 nmol/mg/min).
Series [5] shares this target. In words: Modulation of P-gp ATPase activity (unknown origin) at 1 uM by spectrophotometry (RvB = 30.2 nmol/mg/min).
The subject of a further series is Cerebrospinal fluid. The series can be described thus: Drug uptake in Rattus norvegicus Sprague-Dawley (rat) CSF at 10 mg/kg, iv after 1 hr by HPLC analysis. The series is classed as ADME, organism-based. Set-up: dose 10 mg/kg, route intravenous. The following applies: in vivo.
The target of series [6] is T1, ATP-dependent translocase ABCB1. In words: Modulation of P-gp ATPase activity (unknown origin) at 10 uM by spectrophotometry (RvB = 30.2 nmol/mg/min).
For series [7] the target is unchanged. In words: Inhibition of Progesterone-induced P-gp ATPase activity (unknown origin) at 1 uM by spectrophotometry (reference value: 61.5 nmol/mg/min).
For series [8] the target is unchanged. The series can be described thus: Inhibition of Vinblastine-induced P-gp ATPase activity (unknown origin) at 10 uM by spectrophotometry (reference value: 42.8 nmol/mg/min).
For another series, the system named is Brain. In words: Drug uptake in Rattus norvegicus Sprague-Dawley (rat) brain at 10 mg/kg, iv by HPLC analysis. The series is classed as ADME, organism-based. Set-up: dose 10 mg/kg, route intravenous. The following applies: in vivo.

Calls of active or inactive are those of the source. The calls are words filed in the database; no cut-off is given here.

T1 sequence (P08183 whole entry): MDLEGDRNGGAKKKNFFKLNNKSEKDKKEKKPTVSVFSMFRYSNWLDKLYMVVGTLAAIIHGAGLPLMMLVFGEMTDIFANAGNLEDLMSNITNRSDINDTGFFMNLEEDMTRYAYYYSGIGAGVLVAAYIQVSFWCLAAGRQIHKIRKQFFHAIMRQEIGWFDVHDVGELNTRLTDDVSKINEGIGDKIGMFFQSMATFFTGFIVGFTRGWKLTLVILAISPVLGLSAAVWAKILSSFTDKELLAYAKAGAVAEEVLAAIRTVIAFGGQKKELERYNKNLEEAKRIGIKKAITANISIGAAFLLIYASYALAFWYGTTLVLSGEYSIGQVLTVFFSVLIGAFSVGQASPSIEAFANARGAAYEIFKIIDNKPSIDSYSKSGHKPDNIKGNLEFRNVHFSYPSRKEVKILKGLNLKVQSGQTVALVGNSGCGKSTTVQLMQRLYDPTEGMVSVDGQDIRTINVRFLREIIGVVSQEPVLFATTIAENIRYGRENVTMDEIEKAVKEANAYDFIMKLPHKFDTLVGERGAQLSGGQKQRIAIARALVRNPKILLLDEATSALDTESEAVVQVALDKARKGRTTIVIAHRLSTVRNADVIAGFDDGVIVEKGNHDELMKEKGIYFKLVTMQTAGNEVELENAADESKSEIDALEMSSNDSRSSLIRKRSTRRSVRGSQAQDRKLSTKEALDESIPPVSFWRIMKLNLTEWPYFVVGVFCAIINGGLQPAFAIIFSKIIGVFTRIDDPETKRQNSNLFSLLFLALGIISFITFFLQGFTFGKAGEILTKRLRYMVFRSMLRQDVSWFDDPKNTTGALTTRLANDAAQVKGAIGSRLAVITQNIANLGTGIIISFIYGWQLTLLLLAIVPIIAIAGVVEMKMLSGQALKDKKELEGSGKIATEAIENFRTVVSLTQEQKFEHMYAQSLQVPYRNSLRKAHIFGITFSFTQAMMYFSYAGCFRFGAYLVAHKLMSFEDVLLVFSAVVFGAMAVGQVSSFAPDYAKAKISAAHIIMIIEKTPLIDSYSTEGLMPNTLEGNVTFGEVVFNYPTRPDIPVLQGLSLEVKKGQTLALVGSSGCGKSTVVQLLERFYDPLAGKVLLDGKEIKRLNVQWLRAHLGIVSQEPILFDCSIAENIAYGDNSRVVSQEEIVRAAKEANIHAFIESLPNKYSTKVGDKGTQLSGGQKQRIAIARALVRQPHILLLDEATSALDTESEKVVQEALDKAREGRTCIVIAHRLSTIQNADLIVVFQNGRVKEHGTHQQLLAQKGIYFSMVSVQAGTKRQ

`Cn1nnc2c(C(N)=O)ncn2c1=O` [TEMOZOLOMIDE] had a pBBB with Blood brain barrier of 2.7 ×10⁻³ cm/s. Further, the outcome in the series on Glioma was Active.
For `Oc1ccc(CN(Cc2ccc(C(F)(F)F)cc2)Cc2ccc(O)c3ncccc23)c2cccnc12`, the Activity is reported as 77.1 nmol/mg/min in series [1]; 51.8 nmol/mg/min in [2]; 84.5 nmol/mg/min in [3]; 34.3 nmol/mg/min in series [4]; 31.3 nmol/mg/min in series [5]; 33.1 nmol/mg/min in series [6]. Besides, the results for the Activity in series [7] and in series [8] were 54.8 nmol/mg/min and 30.8 nmol/mg/min, respectively. Further, the Drug uptake in the series with Cerebrospinal fluid was determined as 0.037%; in the series with Brain, 2.2%. For the same compound, the result with Glioma was Active.
